In patent publication US11596632B2, “JAK1 pathway inhibitors for the treatment of gastrointestinal disease” (Incyte Corporation, priority 2018, dated 2023):

Columns and labels:
[1] = system: oxazolone-induced colitis in BALB/c mice; conditions: published results (Beattie et al); cited from earlier work
[2] = molecular target: human JAK1 (a.a. 837-1142) (Homo sapiens (Human), UniProt P23458); assay: In vitro JAK kinase assay (HTRF), JAK1; assay type: biochemical; conditions: 1 mM ATP
Experimental: (§1) The catalytic activity of JAK1, JAK2 or JAK3 was assayed by measuring the phosphorylation of a biotinylated peptide. The phosphorylated peptide was detected by homogenous time resolved fluorescence (HTRF). […] Reactions are carried out at room temperature for 1 hour and then stopped with 20 μL 45 mM EDTA, 300 nM SA-APC, 6 nM Eu-Py20 in assay buffer (Perkin Elmer, Boston, Mass.). Binding to the Europium labeled antibody takes place for 40 minutes and HTRF signal was measured on a Fusion plate reader (Perkin Elmer, Boston, Mass.).

JAK2 (a.a. 828-1132) = JAK2 (a.a. 828-1132) (Homo sapiens (Human), UniProt O60674); assay: In vitro JAK kinase assay (HTRF), JAK2 relative to JAK1; assay type: biochemical; conditions: IC50 ratio, 1 mM ATP
JAK2 (a.a. 828-1132), sequence (O60674 828-1132): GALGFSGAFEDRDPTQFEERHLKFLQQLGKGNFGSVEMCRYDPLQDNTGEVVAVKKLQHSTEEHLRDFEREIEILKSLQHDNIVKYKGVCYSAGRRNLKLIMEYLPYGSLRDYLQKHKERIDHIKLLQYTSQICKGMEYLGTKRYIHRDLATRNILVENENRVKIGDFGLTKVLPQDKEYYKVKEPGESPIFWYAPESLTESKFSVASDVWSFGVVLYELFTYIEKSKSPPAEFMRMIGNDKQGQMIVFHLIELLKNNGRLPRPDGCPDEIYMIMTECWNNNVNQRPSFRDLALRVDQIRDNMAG
Experimental: as §1

human JAK1 (a.a. 837-1142), sequence (P23458 837-1142): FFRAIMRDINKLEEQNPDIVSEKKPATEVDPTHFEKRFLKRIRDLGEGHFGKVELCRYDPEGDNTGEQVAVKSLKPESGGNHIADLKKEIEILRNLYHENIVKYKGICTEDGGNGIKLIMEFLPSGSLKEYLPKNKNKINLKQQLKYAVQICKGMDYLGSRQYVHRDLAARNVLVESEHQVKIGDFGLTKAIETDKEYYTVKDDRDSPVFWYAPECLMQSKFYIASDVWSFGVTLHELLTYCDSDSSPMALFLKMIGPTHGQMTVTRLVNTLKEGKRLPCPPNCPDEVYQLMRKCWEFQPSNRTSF

Row | IC50 [2] [nM] | JAK2/JAK1 (JAK2 (a.a. 828-1132)) | SMILES | effect on oxazolone-induced colitis [1]
1 |  |  | C[C@@H]1CCN(C(=O)CC#N)C[C@@H]1N(C)c1ncnc2[nH]ccc12 [tofacitinib] | inhibits oxazolone-induced colitis
2 | < 10 | >10 | N#CCC(C1CCN(c2nc3cccnc3o2)C1)n1cc(-c2ncnc3[nH]ccc23)cn1 (stereo not drawn) [Compound 7, 3-(1-[1,3]oxazolo[5,4-b]pyridin-2-ylpyrrolidin-3-yl)-3-[4-(7H-pyrrolo[2,3-d]pyrimidin-4-yl)-1H-pyrazol-1-yl]propanenitrile] | 
3 | < 10 | >10 | N#CCC1(n2cc(-c3ncnc4[nH]ccc34)cn2)CN(C2CCN(C(=O)c3ccnc(C(F)(F)F)n3)CC2)C1 [Compound 3, [3-[4-(7H-pyrrolo[2,3-d]pyrimidin-4-yl)-1H-pyrazol-1-yl]-1-(1-{[2-(trifluoromethyl)pyrimidin-4-yl]carbonyl}piperidin-4-yl)azetidin-3-yl]acetonitrile] | 
4 | < 10 | >10 | CCNCc1cc(O[C@H]2CC[C@@H](N3CC(CC#N)(n4cc(-c5ncnc6[nH]ccc56)cn4)C3)CC2)nc(C(F)(F)F)c1 [Compound 19, {1-(cis-4-{[4-[(ethylamino)methyl]-6-(trifluoromethyl)pyridin-2-yl]oxy}cyclohexyl)-3-[4-(7H-pyrrolo[2,3-d]pyrimidin-4-yl)-1H-pyrazol-1-yl]azetidin-3-yl}acetonitrile] | 
5 | < 100 | >10 | C[C@@H](O)c1nc2cnc3ccsc3c2n1[C@H]1CC[C@H](CC#N)OC1 [Compound 5, ((2R,5S)-5-{2-[(1R)-1-hydroxyethyl]-1H-imidazo[4,5-d]thieno[3,2-b]pyridin-1-yl}tetrahydro-2H-pyran-2-yl)acetonitrile] | 
6 | < 10 | >10 | N#CCC(C1CCN(c2cccc(Cl)n2)C1)n1cc(-c2ncnc3[nH]ccc23)cn1 (single isomer, unassigned) [Compound 6, 3-[1-(6-chloropyridin-2-yl)pyrrolidin-3-yl]-3-[4-(7H-pyrrolo[2,3-d]pyrimidin-4-yl)-1H-pyrazol-1-yl]propanenitrile] | 
7 | < 10 | >10 | N#CCC1(n2cc(-c3ncnc4[nH]ccc34)cn2)CN([C@H]2CC[C@@H](Oc3cc(CCO)nc(C(F)(F)F)n3)CC2)C1 [Compound 18, {1-(cis-4-{[6-(2-hydroxyethyl)-2-(trifluoromethyl)pyrimidin-4-yl]oxy}cyclohexyl)-3-[4-(7H-pyrrolo[2,3-d]pyrimidin-4-yl)-1H-pyrazol-1-yl]azetidin-3-yl}acetonitrile] | 
8 | < 10 | >10 | N#CCC1(n2cc(-c3ncnc4[nH]ccc34)cn2)CN(C2CCN(C(=O)Nc3ccc(F)cc3C(F)(F)F)CC2)C1 [Compound 2, 4-{3-(Cyanomethyl)-3-[4-(7H-pyrrolo[2,3-d]pyrimidin-4-yl)-1H-pyrazol-1-yl]azetidin-1-yl}-N-[4-fluoro-2-(trifluoromethyl)phenyl]piperidine-1-carboxamide] | 
9 | < 10 | >10 | N#CC[C@]1(n2cc(-c3ncnc4[nH]ccc34)cn2)C[C@H](N2CCN(C(=O)c3ccnc(C(F)(F)F)n3)CC2)C1 [Compound 10, [trans-1-[4-(7H-pyrrolo[2,3-d]pyrimidin-4-yl)-1H-pyrazol-1-yl]-3-(4-{[2-(trifluoromethyl)pyrimidin-4-yl]carbonyl}piperazin-1-yl)cyclobutyl]acetonitrile] | 
10 | < 10 | >10 | N#CC[C@]1(n2cc(-c3ncnc4[nH]ccc34)cn2)C[C@H](N2CCC(Oc3cc(CN4CC(O)C4)cc(C(F)(F)F)n3)CC2)C1 [Compound 11, {trans-3-(4-{[4-[(3-hydroxyazetidin-1-yl)methyl]-6-(trifluoromethyl)pyridin-2-yl]oxy}piperidin-1-yl)-1-[4-(7H-pyrrolo[2,3-d]pyrimidin-4-yl)-1H-pyrazol-1-yl]cyclobutyl}acetonitrile] | 
11 | < 10 | >10 | N#CCC1(n2cc(-c3ncnc4[nH]ccc34)cn2)CN([C@H]2CC[C@@H](Oc3cc(CN4CC[C@H](O)C4)cc(C(F)(F)F)n3)CC2)C1 [Compound 22, {1-(cis-4-{[4-{[(3S)-3-hydroxypyrrolidin-1-yl]methyl}-6-(trifluoromethyl)pyridin-2-yl]oxy}cyclohexyl)-3-[4-(7H-pyrrolo[2,3-d]pyrimidin-4-yl)-1H-pyrazol-1-yl]azetidin-3-yl}acetonitrile] | 
12 | < 10 | >10 | N#CC[C@]1(n2cc(-c3ncnc4[nH]ccc34)cn2)C[C@H](N2CCC(Oc3cc(CCO)cc(C(F)(F)F)n3)CC2)C1 [Compound 26, {trans-3-(4-{[4-(2-hydroxyethyl)-6-(trifluoromethyl)pyridin-2-yl]oxy}piperidin-1-yl)-1-[4-(7H-pyrrolo[2,3-d]pyrimidin-4-yl)-1H-pyrazol-1-yl]cyclobutyl}acetonitrile] | 
13 | < 10 | >10 | CC(C)(O)c1cc(O[C@H]2CC[C@@H](N3CC(CC#N)(n4cc(-c5ncnc6[nH]ccc56)cn4)C3)CC2)nc(C(F)(F)F)c1 [Compound 20, {1-(cis-4-{[4-(1-hydroxy-1-methylethyl)-6-(trifluoromethyl)pyridin-2-yl]oxy}cyclohexyl)-3-[4-(7H-pyrrolo[2,3-d]pyrimidin-4-yl)-1H-pyrazol-1-yl]azetidin-3-yl}acetonitrile] | 
14 | < 10 | >10 | N#CC[C@]1(n2cc(-c3ncnc4[nH]ccc34)cn2)C[C@H](N2CCC(Oc3cc(CN4CCC[C@H]4CO)cc(C(F)(F)F)n3)CC2)C1 [Compound 12, {trans-3-(4-{[4-{[(2S)-2-(hydroxymethyl)pyrrolidin-1-yl]methyl}-6-(trifluoromethyl)pyridin-2-yl]oxy}piperidin-1-yl)-1-[4-(7H-pyrrolo[2,3-d]pyrimidin-4-l)-1H-pyrazol-1-yl]cyclobutyl}acetonitrile] | 
15 | < 10 | >10 | N#CCC1(n2cc(-c3ncnc4[nH]ccc34)cn2)CN([C@H]2CC[C@@H](Oc3cc(CN4CC[C@@H](O)C4)cc(C(F)(F)F)n3)CC2)C1 [Compound 21, {1-(cis-4-{[4-{[(3R)-3-hydroxypyrrolidin-1-yl]methyl}-6-(trifluoromethyl)pyridin-2-yl]oxy}cyclohexyl)-3-[4-(7H-pyrrolo[2,3-d]pyrimidin-4-yl)-1H-pyrazol-1-yl]azetidin-3-yl}acetonitrile] | 
16 | < 10 | >10 | C[C@@H](CO)NCc1cc(OC2CCN([C@H]3C[C@](CC#N)(n4cc(-c5ncnc6[nH]ccc56)cn4)C3)CC2)nc(C(F)(F)F)c1 [Compound 23] | 
17 | < 10 | >10 | C[C@H](O)CNCc1cc(OC2CCN([C@H]3C[C@](CC#N)(n4cc(-c5ncnc6[nH]ccc56)cn4)C3)CC2)nc(C(F)(F)F)c1 [Compound 25, {trans-3-(4-{[4-({[(2S)-2-hydroxypropyl]amino}methyl)-6-(trifluoromethyl)pyridin-2-yl]oxy}piperidin-1-yl)-1-[4-(7H-pyrrolo[2,3-d]pyrimidin-4-yl)-1H-pyrazol-1-yl]cyclobutyl}acetonitrile] | 
18 | < 10 | >10 | N#CCC(CN1CCN(C(=O)c2ccc(C#N)cc2F)CC1)n1ccc(-c2ncnc3[nH]ccc23)c1 (stereo not drawn) [Compound 9, 4-[(4-{3-cyano-2-[3-(7H-pyrrolo[2,3-d]pyrimidin-4-yl)-1H-pyrrol-1-yl]propyl}piperazin-1-yl)carbonyl]-3-fluorobenzonitrile] | 
19 | < 10 | >10 | C[C@@H](O)CNCc1cc(OC2CCN([C@H]3C[C@](CC#N)(n4cc(-c5ncnc6[nH]ccc56)cn4)C3)CC2)nc(C(F)(F)F)c1 [Compound 24, {trans-3-(4-{[4-({[(2R)-2-hydroxypropyl]amino}methyl)-6-(trifluoromethyl)pyridin-2-yl]oxy}piperidin-1-yl)-1-[4-(7H-pyrrolo[2,3-d]pyrimidin-4-yl)-1H-pyrazol-1-yl]cyclobutyl}acetonitrile] | 
20 | < 10 | >10 | N#CC[C@]1(n2cc(-c3ncnc4[nH]ccc34)cn2)C[C@H](N2CCC(Oc3cc(CN4CCC[C@@H]4CO)cc(C(F)(F)F)n3)CC2)C1 [Compound 13, {trans-3-(4-{[4-{[(2R)-2-(hydroxymethyl)pyrrolidin-1-yl]methyl}-6-(trifluoromethyl)pyridin-2-yl]oxy}piperidin-1-yl)-1-[4-(7H-pyrrolo[2,3-d]pyrimidin-4-yl)-1H-pyrazol-1-yl]cyclobutyl}acetonitrile] | 
